Measured values from the C3SDB collision cross section collection.
Where “and” joins values, the source holds several entries; their conditions need not be identical. Equal entries are not always repeated.

Assays:
[1] = instrument: TW, calibrated with phosphatidylcholines (ESI+) and phosphatidylethanolamines (ESI-)
[2] = instrument: DT, single field, calibrated with Agilent tune mix (Agilent)
[3] = instrument: DT, stepped-field
[4] = instrument: TW, calibrated with polyalanine
[5] = instrument: TW, calibrated with phosphatidylcholines (ESI+) and phosphatidylethanolamines (ESI-); remark: listed apart in the source
[6] = instrument: DT, single field
[7] = [M+Na]+; instrument: DT; stepped-field

SMILES: CCCCCCCC/C=C\CCCCCCCCCC(=O)O[C@H](COC(=O)CCCCCCCCCCCC)COP(=O)(O)OC[C@@H](O)CO [PG(33:1)]
- collision cross section (N2) ([1]; [M-H]-): 267 Å²
- collision cross section (N2) ([2]; [M-H]-): 266.4 Å²
- collision cross section (N2) ([3]; [M-H]-): 273.7 Å²

SMILES: CCCCCCCCCCCCCCCCCCCCC(=O)O[C@H](COC(=O)CCCCCCCCCCCCC)COP(=O)(O)OC[C@@H](O)CO [PG(35:0)]
- collision cross section (N2) ([1]; [M-H]-): 275 Å²

SMILES: Nc1ncnc2c1ncn2[C@@H]1O[C@@H]2COP(=O)(O)O[C@H]2[C@H]1O [cAMP]
- collision cross section (N2) ([4]; [M+H]+): 172 Å²

SMILES: CCCCC/C=C\C/C=C\CCCCCCCC(=O)O[C@H](COC(=O)CCCCCCCCCCCC)COP(=O)(O)OC[C@@H](O)CO [PG(31:2)]
- collision cross section (N2) ([1]; [M-H]-): 257.9 Å²

SMILES: OC[C@H]1O[C@@H](O[C@H]2[C@H](O)[C@@H](O)[C@H](O)O[C@@H]2CO)[C@H](O)[C@@H](O)[C@H]1O [lactose]
- collision cross section (N2) ([4]; [M+Na]+): 173 Å²

SMILES: CCCCC/C=C\C/C=C\C/C=C\CCCCC(=O)O[C@H](CO/C=C\CCCCCCCCCCCCCC)COP(=O)(O)OC[C@@H](O)CO [PG(p34:3)]
- collision cross section (N2) ([1]; [M-H]-): 264.8 Å²

SMILES: C[N+](C)(C)C[C@H](O)CC(=O)[O-] [Carnitine]
- collision cross section (N2) ([4]; [M+H]+): 130 Å²

SMILES: CN=C(NC)NCCC[C@H](N)C(=O)O [SDMA]
- collision cross section (N2) ([4]; [M+H]+): 142 Å²

SMILES: CCCCCCCCCCCCCCCCCC(=O)OC[C@H](COP(=O)(O)OC[C@@H](O)CO)OC(=O)CCCCCCCCCCC [PG(30:0)]
- collision cross section (N2) ([1]; [M-H]-): 258.7 Å²
- collision cross section (N2) ([3]; [M-H]-): 265.6 Å²

SMILES: CC/C=C\C/C=C\C/C=C\CCCCCCCC(=O)OC[C@H](CO[C@@H]1O[C@H](CO)[C@H](O)C(O)C1O)OC(=O)CCCCC/C=C\CCCCCCCC (stereo partly drawn) [MGDG(16:1/18:3)]
- collision cross section (N2) ([1]; [M+NH4]+): 281.2 Å²
- collision cross section (N2) ([1]; [M+Na]+): 278.6 Å²

SMILES: CCCC/C=C\CCCCCCCC(=O)OC[C@H](COP(=O)(O)OC[C@@H](O)CO)OC(=O)CCCCCCC/C=C\CCCCCC [PG(30:2)]
- collision cross section (N2) ([1]; [M-H]-): 255 Å²

SMILES: O=c1ccn([C@@H]2O[C@H](COP(=O)(O)O)[C@@H](O)[C@H]2O)c(=O)[nH]1 [UMP]
- collision cross section (N2) ([4]; [M+Na]+): 168 Å²

SMILES: CCCCC/C=C\CCCCCCCC(=O)O[C@H](CO/C=C\CCCCCCCCCCCCCC)COP(=O)(O)OC[C@@H](O)CO [PG(p31:1)]
- collision cross section (N2) ([1]; [M-H]-): 258.5 Å²

SMILES: CCCCCC/C=C\CCCCCCCC(=O)OC[C@H](COP(=O)(O)OC[C@@H](O)CO)OC(=O)CCCCCCCCCCCCCCCCCCC [PG(36:1)]
- collision cross section (N2) ([1]; [M-H]-): 275.7 Å²
- collision cross section (N2) ([2]; [M+H]+): 292 Å²
- collision cross section (N2) ([2]; [M+NH4]+): 292.5 Å²
- collision cross section (N2) ([2]; [M+Na]+): 287.5 Å²
- collision cross section (N2) ([3]; [M-H]-): 282.9 Å² and 284.1 Å²
- collision cross section (N2) ([5]; [M+Na]+): 287.5 Å²
- collision cross section (N2) ([5]; [M-H]-): 275.7 Å²

SMILES: OC[C@H]1O[C@H](OC[C@H]2O[C@H](O[C@]3(CO)O[C@H](CO)[C@@H](O)[C@@H]3O)[C@H](O)[C@@H](O)[C@@H]2O)[C@H](O)[C@@H](O)[C@H]1O [raffinose]
- collision cross section (N2) ([4]; [M+Na]+): 210 Å²

SMILES: Nc1ncnc2c1ncn2[C@@H]1O[C@H](COP(=O)(O)O)[C@@H](O)[C@H]1O [AMP]
- collision cross section (N2) ([4]; [M+H]+): 167 Å²

SMILES: O=P(O)(O)OC[C@H](O)CO [Glycerol monophosphate]
- collision cross section (N2) ([4]; [M+Na]+): 132 Å²

SMILES: OC[C@H]1O[C@H](O[C@H]2O[C@H](CO)[C@@H](O)[C@H](O)[C@H]2O)[C@H](O)[C@@H](O)[C@@H]1O [trehalose]
- collision cross section (N2) ([4]; [M+Na]+): 173 Å²

SMILES: CCCCCCCCCCCCCCCCC(=O)OC[C@H](COP(=O)(O)O)OC(=O)CCCCCCCCCCCC [PA(30:0)]
- collision cross section (N2) ([1]; [M-H]-): 244.9 Å²

SMILES: CCCCCCCCCCCCCCCCCCC(=O)O[C@H](COC(=O)CCCCCCCCCCC)COP(=O)(O)OC[C@@H](O)CO [PG(31:0)]
- collision cross section (N2) ([1]; [M-H]-): 262 Å²

SMILES: CCCCCCCCCCCC=CCC(=O)OC[C@H](CO[C@@H]1O[C@H](CO[C@H]2O[C@H](CO)[C@H](O)C(O)C2O)[C@H](O)C(O)C1O)OC(=O)CC=CCCCCCCCCCCC (stereo partly drawn) [DGDG(30:2)]
- collision cross section (N2) ([1]; [M+NH4]+): 295.4 Å²
- collision cross section (N2) ([1]; [M+Na]+): 291.7 Å²

SMILES: NCCC[C@H](N)C(=O)O [Ornithine]
- collision cross section (N2) ([4]; [M+H]+): 121 Å²

SMILES: CCCCCC/C=C\CCCCCCCCCC(=O)OCC(COP(=O)([O-])OCC(O)COC(=O)C(N)CCCC[NH3+])OC(=O)CCCCCCC/C=C\CCCCCC (stereo not drawn) [LysPG(34:2)]
- collision cross section (N2) ([1]; [M+H]+): 298.4 Å²

SMILES: N[C@@H](CCC(=O)N[C@@H](CS)C(=O)NCC(=O)O)C(=O)O [glutathione]
- collision cross section (N2) ([4]; [M+H]+): 165 Å²

SMILES: CCCCCCCCCCCCCCCCCCCC(=O)OC(COC(=O)CCCCCCCCCCCCCC)COP(=O)([O-])OCC(O)COC(=O)C(N)CCCC[NH3+] (stereo not drawn) [LysPG(35:0)]
- collision cross section (N2) ([1]; [M+H]+): 305.4 Å²

SMILES: O=C[C@H](O)[C@H](O)[C@H](O)COP(=O)(O)O [Ribose 5-monophosphate]
- collision cross section (N2) ([4]; [M+Na]+): 146 Å²

SMILES: CCCCCCCCCCCCCCCCCCCCC(=O)O[C@H](COC(=O)CCCCCCCCCCCC)COP(=O)([O-])OCC[N+](C)(C)C [PC(34:0)]
- collision cross section (N2) ([6]; [M+H]+): 289.07 Å² and 290.41 Å²
- collision cross section (N2) ([6]; [M+Na]+): 288.39 Å²
- collision cross section (N2) ([2]; [M+H]+): 289.7 Å²
- collision cross section (N2) ([3]; [M+H]+): 301.1 Å²
- collision cross section (N2) ([5]; [M+H]+): 285.8 Å²

SMILES: N[C@@H](Cc1c[nH]c2ccccc12)C(=O)O [Tryptophan]
- collision cross section (N2) ([4]; [M+H]+): 145 Å²

SMILES: CCCCCCCCCCCCCCCCCCC(=O)O[C@H](COC(=O)CCCCCCCCCCCCCCCC)COP(=O)(O)O [PA(36:0)]
- collision cross section (N2) ([1]; [M-H]-): 264.1 Å²

SMILES: CCCCCCCCCCCCC=CCC=CCC(=O)OC[C@H](CO[C@@H]1O[C@H](CO[C@H]2O[C@H](CO)[C@H](O)C(O)C2O)[C@H](O)C(O)C1O)OC(=O)CC=CCCCCCCCCCCCCCC (stereo partly drawn) [DGDG(35:1)]
- collision cross section (N2) ([1]; M+NH4]+): 317.4 Å²

SMILES: CCCCCCCCCCCCCCCC(=O)O[C@H](COC(=O)CCCCCCCCCCCC)COP(=O)(O)OC[C@@H](O)CO [PG(29:0)]
- collision cross section (N2) ([1]; [M-H]-): 255.2 Å²

SMILES: CCCCCCCCCCCCCCCC(=O)OC[C@H](CO[C@@H]1O[C@H](CO[C@H]2O[C@H](CO)[C@H](O)C(O)C2O)[C@H](O)C(O)C1O)OC(=O)CCCCCCCCCCCCCCC (stereo partly drawn) [DGDG(32:0)]
- collision cross section (N2) ([1]; [M+NH4]+): 308.5 Å²
- collision cross section (N2) ([1]; [M+Na]+): 306.7 Å²

SMILES: N[C@@H](CC(=O)O)C(=O)O [Aspartic acid]
- collision cross section (N2) ([4]; [M+H]+): 122 Å²

SMILES: CCCCCCC/C=C\CCCCCCCC(=O)O[C@H](CO/C=C\CCCCCCCCCCCCCC)COP(=O)(O)OC[C@@H](O)CO [PG(p33:1)]
- collision cross section (N2) ([1]; [M-H]-): 265.1 Å²

SMILES: CCCCCCCCCCCCCCCCCCC(=O)OC[C@H](COP(=O)(O)O)OC(=O)CCCCCCCCCCCC [PA(32:0)]
- collision cross section (N2) ([1]; [M-H]-): 251.1 Å²

SMILES: CCCCCCCCCCCCCCCCCCC(=O)OC[C@H](COP(=O)(O)O)OC(=O)CCCCCCCCCCCC [PA(16:0/16:0)]
- collision cross section (N2) ([1]; [M-H]-): 251.4 Å²

SMILES: CSC[C@H]1O[C@@H](n2cnc3c(N)ncnc32)[C@H](O)[C@@H]1O [Methylthioadenosine]
- collision cross section (N2) ([4]; [M+H]+): 167 Å²

SMILES: CCCCCCCCCCCCCCC(=O)OCC(COP(=O)([O-])OCC(O)COC(=O)C(N)CCCC[NH3+])OC(=O)CCCCCCCCCCCCC (stereo not drawn) [LysPG(29:0)]
- collision cross section (N2) ([1]; [M+H]+): 287.8 Å²

SMILES: CCCCC/C=C\C/C=C\CCCCCCCCCC(=O)O[C@H](COC(=O)CCCCCCC/C=C\C/C=C\CCCCC)COP(=O)(O)OCCN [PE(38:4)]
- collision cross section (N2) ([2]; [M+H]+): 282.9 Å²
- collision cross section (N2) [7]: 290 Å²
- collision cross section (N2) ([3]; [M-H]-): 278.4 Å² and 277.4 Å²
- collision cross section (N2) ([5]; [M+H]+): 280.4 Å²
- collision cross section (N2) ([5]; [M-H]-): 271.1 Å²

SMILES: CC(C)(CO)[C@@H](O)C(=O)NCCC(=O)O [Pantothenic acid]
- collision cross section (N2) ([4]; [M+H]+): 145 Å²

SMILES: CCCCCCCCCCCCCCCCCC(=O)OC[C@H](CO[C@@H]1O[C@H](CO[C@H]2O[C@H](CO)[C@H](O)C(O)C2O)[C@H](O)C(O)C1O)OC(=O)CCCCCCCCCCCCCCCCC (stereo partly drawn) [DGDG(36:0)]
- collision cross section (N2) ([1]; [M+NH4]+): 326.8 Å²

SMILES: CCCC/C=C\CCCCCCCC(=O)OC[C@H](COP(=O)(O)OC[C@@H](O)CO)OC(=O)CCCCCCCCCCCCCCCCCCCC [PG(35:1)]
- collision cross section (N2) ([1]; [M-H]-): 273.2 Å²
- collision cross section (N2) ([2]; [M-H]-): 272.7 Å²
- collision cross section (N2) ([3]; [M-H]-): 280.1 Å²

SMILES: CCCCCC/C=C\CCCCCCCCCC(=O)OC[C@H](COP(=O)([O-])OCC[N+](C)(C)C)OC(=O)CCCCCCCCCCCCCCC [PC(34:1)]
- collision cross section (N2) ([6]; [M+H]+): 285.62 Å² and 287.54 Å²
- collision cross section (N2) ([2]; [M+H]+): 287.1 Å²
- collision cross section (N2) ([3]; [M+H]+): 300.3 Å²
- collision cross section (N2) ([5]; [M+CH3COO]-): 289.1 Å²
- collision cross section (N2) ([5]; [M+H]+): 285.3 Å²

SMILES: CC/C=C\C/C=C\C/C=C\CCCCCCCC(=O)OC[C@H](CO[C@@H]1O[C@H](CO)[C@H](O)C(O)C1O)OC(=O)CCCCCCC/C=C\C/C=C\C/C=C\CC (stereo partly drawn) [MGDG(18:3/18:3)]
- collision cross section (N2) ([1]; [M+CH3COO]-): 286.3 Å²
- collision cross section (N2) ([1]; [M+Cl]-): 278.5 Å²
- collision cross section (N2) ([1]; [M+K]+): 282.5 Å²
- collision cross section (N2) ([1]; [M+NH4]+): 284.1 Å²
- collision cross section (N2) ([1]; [M+Na]+): 281 Å²
- collision cross section (N2) ([1]; [M-H]-): 276.2 Å²

SMILES: CCCC/C=C\CCCCCCCC(=O)OC[C@H](COP(=O)(O)OC[C@@H](O)CO)OC(=O)CCCCCCC/C=C\CCCCCCCC [PG(32:2)]
- collision cross section (N2) ([1]; [M-H]-): 261.4 Å²
- collision cross section (N2) ([5]; [M+Na]+): 269.8 Å²
- collision cross section (N2) ([5]; [M-H]-): 261 Å²
